Results taken from PubChem BioAssay (NCI).
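Briefly, cells in 96-well plates were exposed to five compound concentrations for 48 h, and endpoints were estimated by linear interpolation. GI50 = concentration required for 50% inhibition of growth. TGI denotes the concentration required for complete inhibition of growth.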

Assays:
Assay in all cases: inhibition of tumour cell growth, NCI panel, 48 h
[1] = test system: NCI-H226 lung
[2] = test system: OVCAR-4 ovarian
[3] = test system: A549 NSCLC
[4] = test system: 786-0 renal
[5] = test system: SK-MEL-5 melanoma
[6] = test system: DU-145 prostate
[7] = test system: IGROV1 ovarian
[8] = test system: HOP-92 NSCLC
[9] = test system: NCI-H460 lung
[10] = test system: CCRF-CEM leukemia
[11] = test system: OVCAR-5 ovarian
[12] = test system: HS 578T breast
[13] = test system: SK-OV-3 ovarian
[14] = test system: NCI-H23 lung
[15] = test system: SN12C renal
[16] = test system: CAKI-1 renal
[17] = test system: SF-539 CNS
[18] = test system: TK-10 renal
[19] = test system: NCI-H522 lung
[20] = test system: RXF 393 renal
[21] = test system: LOX IMVI melanoma
[22] = test system: HOP-62 NSCLC
[23] = test system: U251 CNS
[24] = test system: MOLT-4 leukemia
[25] = test system: SK-MEL-28 melanoma
[26] = test system: HT29 colon
[27] = test system: OVCAR-3 ovarian
[28] = test system: M14 melanoma
[29] = test system: KM12 colon
[30] = test system: UACC-62 melanoma
[31] = test system: T-47D breast
[32] = test system: SW-620 colon
[33] = test system: MDA-MB-231 breast
[34] = test system: SF-268 CNS
[35] = test system: MALME-3M melanoma
[36] = test system: OVCAR-8 ovarian
[37] = test system: PC-3 prostate
[38] = test system: UO-31 renal
[39] = test system: SR leukemia
[40] = test system: ACHN renal
[41] = test system: SK-MEL-2 melanoma
[42] = test system: MDA-MB-435
[43] = test system: A498 renal
[44] = test system: NCI/ADR-RES ovarian
[45] = test system: UACC-257 melanoma
[46] = test system: SF-295 CNS
[47] = test system: SNB-75 CNS
[48] = test system: K-562 leukemia
[49] = test system: HL-60(TB) leukemia
[50] = test system: MCF7 breast
[51] = test system: HCT-116 colon
[52] = test system: EKVX NSCLC
[53] = test system: HCT-15 colon
[54] = test system: RPMI-8226 leukemia
[55] = test system: COLO 205 colon
[56] = test system: BT-549 breast
[57] = test system: HCC-2998 colon
[58] = test system: SNB-19 CNS

Question: Which results are given for `O=C(Nc1n[nH]c2nc(-c3ccc(O)cc3)c(Br)cc12)C1CC1`?
Answer: GI50 [1]: 3.14 µM; TGI [1]: 13.5 µM; GI50 [2]: 5.17 µM; TGI [2]: 14.4 µM; GI50 [3]: 4.98 µM; TGI [3]: > 21.7 µM; GI50 [4]: 4.55 µM; TGI [4]: 14.3 µM; GI50 [5]: 607 nM; TGI [5]: 4.07 µM; GI50 [6]: 3.8 µM; TGI [6]: 20.4 µM; GI50 [7]: 5.75 µM; TGI [7]: > 20.6 µM; GI50 [8]: 8.66 µM; TGI [8]: 18.3 µM; GI50 [9]: 1890 nM; TGI [9]: > 20.1 µM; GI50 [10]: 1820 nM; TGI [10]: > 25 µM; GI50 [11]: 7.46 µM; TGI [11]: 21.7 µM; GI50 [12]: 4.15 µM; TGI [12]: 21.6 µM; GI50 [13]: 2670 nM; TGI [13]: 11.8 µM; GI50 [14]: 4.78 µM; TGI [14]: 16.8 µM; GI50 [15]: 3.41 µM; TGI [15]: 20.1 µM; GI50 [16]: 3.11 µM; TGI [16]: 16.5 µM; GI50 [17]: 1340 nM; TGI [17]: 6.27 µM; GI50 [18]: 7.29 µM; TGI [18]: 17.4 µM; GI50 [19]: 4.33 µM; TGI [19]: 12.1 µM; GI50 [20]: 1180 nM; TGI [20]: 5.02 µM; GI50 [21]: 1750 nM; TGI [21]: 13.1 µM; GI50 [22]: 5.32 µM; TGI [22]: 14 µM; GI50 [23]: 4.39 µM; TGI [23]: > 20.2 µM; GI50 [24]: 5.13 µM; TGI [24]: > 25 µM; GI50 [25]: 3.85 µM; TGI [25]: 9.88 µM; GI50 [26]: 2040 nM; TGI [26]: 13.8 µM; GI50 [27]: 1390 nM; TGI [27]: 9.14 µM; GI50 [28]: 3.97 µM; TGI [28]: 11.3 µM; GI50 [29]: 1540 nM; TGI [29]: 7.76 µM; GI50 [30]: 4.26 µM; TGI [30]: 11.9 µM; GI50 [31]: 3.81 µM; TGI [31]: 14.5 µM; GI50 [32]: 4.36 µM; TGI [32]: > 25 µM; GI50 [33]: 5.52 µM; TGI [33]: 16.8 µM; GI50 [34]: 4.74 µM; TGI [34]: 16.5 µM; GI50 [35]: 4.62 µM; TGI [35]: 12.5 µM; GI50 [36]: 4.71 µM; TGI [36]: > 22.1 µM; GI50 [37]: 4.49 µM; TGI [37]: > 23.4 µM; GI50 [38]: 3.93 µM; TGI [38]: 15.3 µM; GI50 [39]: 1530 nM; TGI [39]: > 15.4 µM; GI50 [40]: 2620 nM; TGI [40]: > 21.8 µM; GI50 [41]: 3.07 µM; TGI [41]: 7.17 µM; GI50 [42]: 2710 nM; TGI [42]: 7.29 µM; GI50 [43]: 4.65 µM; TGI [43]: 14.4 µM; GI50 [44]: 6.49 µM; TGI [44]: > 25 µM; GI50 [45]: 6.36 µM; TGI [45]: 17 µM; GI50 [46]: 2380 nM; TGI [46]: 14.8 µM; GI50 [47]: 6.21 µM; TGI [47]: 12.5 µM; GI50 [48]: 2860 nM; TGI [48]: > 25 µM; GI50 [49]: 2790 nM; TGI [49]: 15.4 µM; GI50 [50]: 1050 nM; TGI [50]: 10.2 µM; GI50 [51]: 1900 nM; TGI [51]: > 25 µM; GI50 [52]: 6.34 µM; TGI [52]: 19 µM; GI50 [53]: 3.77 µM; TGI [53]: > 23.2 µM; GI50 [54]: 6.05 µM; TGI [54]: 15.7 µM; GI50 [55]: 3.18 µM; TGI [55]: 8.76 µM; GI50 [56]: 5.78 µM; TGI [56]: 19.8 µM; GI50 [57]: 4.76 µM; TGI [57]: > 20.3 µM; GI50 [58]: 6.96 µM; TGI [58]: > 24.1 µM
